From patent US20160228056A1, “DYNAMIC POSITRON EMISSION TOMOGRAPHY IMAGING” (THE GENERAL HOSPITAL CORPORATION, priority 2013, published 2016)
Entries after “also recorded” stand apart in the source; their conditions may differ.

Key:
[1] = cited from earlier work; for K1 (rate constant, transport from blood to brain) / k2 (rate constant, transport back from brain to blood) / k3 (rate constant, phosphorylation in the brain tissue): two-tissue compartment model (Reivich et al., 1985)
[2] = blood radioactivity during the FDG infusion protocol; format: in vivo, human; settings: constant infusion
Experimental: FDG was administered in saline intravenously at a constant infusion rate of 0.01 ml/s for 90 minutes to healthy subjects (1 female/2 males, mean age 32±2) using a Medrad® Spectra Solaris syringe pump. In a separate experiment, FDG was administered as a traditional bolus injection (5 mCi administered in 5 mL saline over ˜30 seconds) during rest for 3 additional healthy subjects (1 female/2 males, mean age 29±3). Venous blood samples were collected in all subjects during scanning, then centrifuged to obtain plasma, and aliquoted in a gamma counter that had been precalibrated to the PET scanner to measure the venous activity during the experiment. The fPET-FDG data were binned into 90 one-minute frames. The reconstructed volume was down-sampled to 76 slices with 128×128 voxels (2.5×2.5×2.5 mm^3) with one minute time frames. For bolus FDG comparison studies, data were processed as a single frame (40-70 minutes post injection) and analogously down-sampled. Standardized Uptake Values (SUVs) were normalized to gray matter uptake for each subject.
FDG in saline solution was administered intravenously at a constant infusion rate of 0.01 ml/s for 90 min to healthy subjects (1 female/2 males, mean age 32±2 years) using a Medrad® Spectra Solaris syringe pump (initial activity=5±0.6 mCi). […]

glucose utilization = experiment: fPET-FDG constant infusion with checkerboard visual stimulation; format: in vivo, human; settings: for mean percent increase in glucose utilization derived from fPET-FDG: fixed-effect group analysis, three subjects
Experimental: To interrogate dynamic metabolic information, a 90-minute constant FDG infusion paradigm was used (0.01 ml/s, 5 mCi total calculated to the beginning of infusion), during which we periodically presented a conventional visual stimulus consisting of an 8-Hz counterphase flickering “checkerboard” pattern as shown in FIG. 2A. The stimulus was projected on a screen mounted at the end of the magnet bore, and subjects (n=3) viewed the stimulus through a mirror. We used three different stimuli: two full-field checkerboard stimulus periods for a duration of 10 minutes each, and two hemi-field checkerboard stimulus periods (right and left) for a duration of 5 minutes each (FIG. 2A). This design allowed us to confirm that the observed metabolic signal changes were specific to the stimuli, and also that multiple stimuli (four in this case) can be measured dynamically during a single scan of a single subject. In addition to our dynamic analysis, the fPET-FDG data were also binned into 90 one-minute frames using previously published methods (see, Catana et al., J Nucl Med 51, 1431, September, 2010; and Catana et al., J Nucl Med 52, 154, January 2011). During the fPET-FDG scan, functional MR data were simultaneously collected using a Siemens BrainPET scanner. BOLD data were collected prior to and during the first 10 minute full-field checkerboard and the two hemi-field checkerboard stimuli; and ASL data were collected prior to and during the second 10 minute full-field checkerboard stimulus.
FDG was delivered at a constant rate during our fPET studies. At steady state, the rate of FDG utilization in a given voxel is proportional to the slope of the radioactivity accumulated in that voxel. As shown in Example 1 below, during steady state the slope of the voxelwise FDG uptake from fPET can be represented as: slope=(CMRglu*LC*Cp)/Ca^o where LC is the lumped constant which converts FDG metabolic rate to glucose metabolic rate, Ca^o is a measurement of plasma glucose (see, Reivich et al., Circ Res 44, 127, January 1979; and Phelps et al., Ann Neurol 6, 371, November 1979), and Cp is the plasma radioactivity concentration (which is controlled through constant infusion). The slope is an approximation for (K1k3)/(k2+k3) scaled by Cp and is thus analogous to Ki (the influx rate constant) determined by a linear approximation of a bolus FDG injection by Patlak analysis (see, Patlak et al., J Cereb Blood Flow Metab 3, 1, Mar. 1983; and Lucignani et al., J Nucl Med 34, 360, March 1993). Changes in slope are thus proportional to changes in CMRglu. By taking the derivative of the fPET-FDG uptake time course estimated using pairwise subtraction of the 90 one minute frames to form a relative index of uptake rate, we generated a time series akin to a BOLD fMRI signal to represent change in CMRglu. We then used fMRI software, FSL's (FMRIB Software Library) FEAT (see Jenkinson et al., Neuroimage 62, 782, Aug. 15, 2012) to process the fPET-FDG data using a generalized linear model (GLM) with 3 different explanatory variables (EV): (i) 2 blocks of the 10 minutes full-field checkerboard paradigm (EV1), (ii) a 5 minute block of left hemi-field checkerboard (EV2) and (iii) a 5 minute block of right hemi-field checkerboard (EV3). Confirmation of functional specificity is inherent in our analyses given that both hemispheres of the visual system respond equally to the full-field checkerboard whereas the contralateral hemisphere has a higher response to a hemi-field checkerboard. […]

cerebral blood flow = experiment: non-human primate hypercapnia experiment with fPET-FDG and ASL CBF; format: in vivo, baboon
Source text: To assess the influence of cerebral blood flow changes on FDG signal we administered inhaled carbon dioxide, a strong vasodilatory stimulus, to two baboons (2 females, ˜10-12 kg) simultaneously with fPET-FDG and arterial spin labeling (ASL) MRI for CBF measurements. The protocol was approved by the Institutional Animal Care and Use Committee. Animals were anesthetized with isoflurane (1%) and mechanically ventilated. Physiological parameters were continuously monitored and maintained within the normal range. All images were acquired on the same 3T Siemens TIM-Trio with a BrainPET insert as the human data, using a custom PET-compatible 8-channel array coil. Similar to the human protocol, ˜5 mCi of FDG was continuously infused intravenously at a rate of 0.01 mL/sec for each study. PET data were stored in list mode and binned into 1-minute frames. Dual echo pseudo-continuous arterial spin labeling (pCASL) data were acquired simultaneously (TR/TE1/TE2=4000/12/30 ms, 2.2×2.2×4 mm) (Wey et al., 2010). During a 50 minute dynamic fPET/fMRI scan, a hypercapnic challenge (7% CO2) was given for 10 minutes between 30 and 40 minutes. All data were motion and slice-time corrected, skull stripped, spatially smoothed and registered to a standard NHP atlas. Percent changes in gray matter CBF were calculated.

[3] = 10 minute full checkerboard, average of 3 subjects, exponential fit

Compound | extraction fraction ([1]; brain) [%] | K1 (rate constant, transport from blood to brain) [1] [mL/min] | k2 (rate constant, transport back from brain to blood) [1] [min⁻¹] | k3 (rate constant, phosphorylation in the brain tissue) [1] [min⁻¹] | blood radioactivity during the infusion protocol, maximum ([2]; venous plasma blood) [kBq/cc] | blood radioactivity during the infusion protocol, average ([2]; whole blood) [kBq/cc] | tau of the exponential decrease in FDG signal after the end of the activation (glucose utilization; [3]) [min] | tau of the exponential increase in FDG signal after the beginning of the activation (glucose utilization; [3]) [min] | mean percent increase in glucose utilization derived from fPET-FDG (glucose utilization; full-field checkerboard vs baseline) [%] | mean percent increase in glucose utilization derived from fPET-FDG (glucose utilization; left hemi-field checkerboard vs baseline) [%] | mean percent increase in glucose utilization derived from fPET-FDG (glucose utilization; right hemi-field checkerboard vs baseline) [%] | CBF increase on average (cerebral blood flow; gray matter, ASL, 10 minutes of hypercapnia (7% CO2), anesthetized baboon) [%] | effect on FDG uptake rate / FDG signal slope (cerebral blood flow; hypercapnia (7% CO2) between 30 and 40 minutes of 50 minute FDG infusion, baboon) | CBF change at maximum (cerebral blood flow; hypercapnia stimulus (7% CO2), baboon) [%]
2-[^18F]-fluoro-2-deoxyglucose [FDG] | 4 | 0.1 | 0.15 | 0.08 | 4 | 4 | 5.6 | 4.9 | 25 | 26 | 28 | – | – | –
O=C=O [carbon dioxide] | – | – | – | – | – | – | – | – | – | – | – | 70 | did not alter FDG uptake rate; also recorded: did not induce any measurable change | 120
OCC1OC(O)CC(O)C1O (centres unmarked) [deoxyglucose] | – | ~0.1 | ~0.15 | ~0.08 | – | – | – | – | – | – | – | – | – | –
